The subject of the test is PC12 cells. Put plainly: Neurite growth of NGF-stimulated PC12 cells with added ManNProp. It counts as cell-based. As to conditions: two days, control NGF only. How it is done:
It is known that stimulation with nerve growth factor (NGF) causes neuronal differentiation in PC12 cells. At an NGF concentration of 250 ng/ml and after three days of incubation, the PC12 cells already form a network of neurites. In order to examine whether the addition of ManNProp has an influence on the neurite formation by PC12 cells, the suitable neurite lengths for different incubation times were first titrated with different NGF concentrations. At an NGF concentration of 100 ng and an incubation time of two days, the cells formed neurites whose length were double the diameter of their cell. Under such conditions, the further course of the experiments was set up. The cells were plated with a constant number of cells on culture chambers which consisted of four chambers and were coated with collagen I (col.), poly-D-lysine (PDL) or laminin, and incubated under three different sets of conditions. Each variation was represented in duplicate. In the first chamber, the PC12 cells were incubated with 5 mM ManNProp, and in the second chamber, they were incubated with 100 ng of NGF. […] The first and second chambers served as a reference control for the cells under the influence of NGF and ManNProp. For each experiment, three culture chambers were sown in duplicate. After two days of incubation, the cells were fixed with paraformaldehyde, stained with crystal violet and washed with water. For evaluation, various segments were photographed and measured according to a random choice principle. For the evaluation, only the cells stimulated with NGF which served as a control and the cells stimulated with NGF plus ManNProp were considered. Each bar represents three experiments performed on three different days. The relative neurite length was established by CAPA (computer-assisted process analysis), and the data were integrated by means of Delta Graph. All experiments shown here were independently performed on different days. The values from Table 1 were additionally represented graphically in FIG. 3.

Structures are written as SMILES.

Take `CCC(=O)N[C@@H]1C(O)O[C@H](CO)[C@@H](O)[C@@H]1O` (stereo partly drawn) [ManNProp, N-propanoylmannosamine]: the “Enhancement of neurite growth in percent relative to the control” value was 3% (Col. (collagen I) coating, 0.5 mM ManNProp + 100 ng NGF); 11% (Col. (collagen I) coating, 5 mM ManNProp + 100 ng NGF); 20% (Col. (collagen I) coating, 25 mM ManNProp + 100 ng NGF); 28% (Laminin coating, 0.5 mM ManNProp + 100 ng NGF); 70% (Laminin coating, 5 mM ManNProp + 100 ng NGF); 59% (Laminin coating, 25 mM ManNProp + 100 ng NGF). Besides, the “Enhancement of neurite growth in percent relative to the control” value was 4% (PDL (poly-D-lysine) coating, 0.5 mM ManNProp + 100 ng NGF); 5% (PDL (poly-D-lysine) coating, 5 mM ManNProp + 100 ng NGF); 17% (PDL (poly-D-lysine) coating, 25 mM ManNProp + 100 ng NGF).

For the origin of these results see patent US7217698B2, “Use of mannosamine derivatives for the stimulation of neurite growth” (Dompatent von Kreisler Selting Werner, priority 2001, dated 2007).
